Reference: PMC8429728, “TNK1 is a ubiquitin-binding and 14-3-3-regulated kinase that can be targeted to block tumor growth” (Nature Communications, 2021)
Where two headings read alike, the source gives them in different places.

What was measured:
Experiment in all cases: biochemical
Set-up in all cases: Reaction Biology 371-kinase panel at Km ATP, per cent enzyme activity relative to DMSO, single dose in duplicate
ALK5/TGFBR1 = ALK5/TGFBR1 (Homo sapiens, UniProt P36897); conditions: duplicate measurements, Km ATP
Method in brief: (§1)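 In vitro selectivity panel: 371 kinases, inhibitor at 300 nM; % activity vs DMSO; IC50 by variable-slope sigmoidal fit, bottom = 0.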

BRSK2 = BRSK2 (Homo sapiens, UniProt Q8IWQ3); conditions: duplicate measurements, Km ATP
Method in brief: as §1

CAMK4 = CAMK4 (Homo sapiens, UniProt Q16566); conditions: duplicate measurements, Km ATP
Method in brief: as §1

CDK1/cyclin B = CDK1/cyclin B (Homo sapiens, UniProt P06493); conditions: duplicate measurements, Km ATP; read-out: % Enzyme Activity (relative to DMSO controls) / TP-0005801 (0.3µM) / Data 1
Method in brief: as §1

CK2a = biological target: T1, CK2a (Homo sapiens, UniProt P68400); conditions: duplicate measurements, Km ATP
T1 construct: gene CSNK2A1
Method in brief: as §1

CK2a2 = biological target: T2, CK2a2 (Homo sapiens, UniProt P19784); conditions: duplicate measurements, Km ATP
T2 construct: gene CSNK2A2
Method in brief: as §1

COT1/MAP3K8 = COT1/MAP3K8 (Homo sapiens, UniProt P41279); conditions: duplicate measurements, Km ATP
Method in brief: as §1

DMPK = DMPK (Homo sapiens, UniProt Q09013); conditions: duplicate measurements, Km ATP
Method in brief: as §1

EPHA3 = EPHA3 (Homo sapiens, UniProt P29320); conditions: duplicate measurements, Km ATP
Method in brief: as §1

FER = FER (Homo sapiens, UniProt P16591); conditions: duplicate measurements, Km ATP
Method in brief: as §1

FES/FPS = FES/FPS (Homo sapiens, UniProt P07332); conditions: duplicate measurements, Km ATP
Method in brief: as §1

MEK1 = biological target: T3, MEK1 (Homo sapiens, UniProt Q02750); conditions: duplicate measurements, Km ATP
T3 construct: gene MAP2K1
Method in brief: as §1

MYO3b = MYO3b (Homo sapiens, UniProt Q8WXR4); conditions: duplicate measurements, Km ATP
Method in brief: as §1

NIM1 = biological target: T4, NIM1 (Homo sapiens, UniProt Q8IY84); conditions: duplicate measurements, Km ATP
T4 construct: gene NIM1K
Method in brief: as §1

OSR1/OXSR1 = OSR1/OXSR1 (Homo sapiens, UniProt O95747); conditions: duplicate measurements, Km ATP
Method in brief: as §1

PKA = biological target: T5, PKA (Homo sapiens, UniProt P17612); conditions: duplicate measurements, Km ATP
T5 construct: gene PRKACA
Method in brief: as §1

RET = RET (Homo sapiens, UniProt P07949); conditions: duplicate measurements, Km ATP
Method in brief: as §1

STK32C/YANK3 = STK32C/YANK3 (Homo sapiens, UniProt Q86UX6); conditions: duplicate measurements, Km ATP
Method in brief: as §1

STK38L/NDR2 = STK38L/NDR2 (Homo sapiens, UniProt Q9Y2H1); conditions: duplicate measurements, Km ATP
Method in brief: as §1

TAK1 = biological target: T6, TAK1 (Homo sapiens, UniProt O43318); conditions: duplicate measurements, Km ATP
T6 construct: gene MAP3K7
Method in brief: as §1

[1] = read-out: % Enzyme Activity (relative to DMSO controls) / TP-0005801 (0.3µM) / Data 1
[2] = read-out: % Enzyme Activity (relative to DMSO controls) / TP-0005801 (0.3µM) / Data 2

Sequence of DMPK (Q09013 whole entry): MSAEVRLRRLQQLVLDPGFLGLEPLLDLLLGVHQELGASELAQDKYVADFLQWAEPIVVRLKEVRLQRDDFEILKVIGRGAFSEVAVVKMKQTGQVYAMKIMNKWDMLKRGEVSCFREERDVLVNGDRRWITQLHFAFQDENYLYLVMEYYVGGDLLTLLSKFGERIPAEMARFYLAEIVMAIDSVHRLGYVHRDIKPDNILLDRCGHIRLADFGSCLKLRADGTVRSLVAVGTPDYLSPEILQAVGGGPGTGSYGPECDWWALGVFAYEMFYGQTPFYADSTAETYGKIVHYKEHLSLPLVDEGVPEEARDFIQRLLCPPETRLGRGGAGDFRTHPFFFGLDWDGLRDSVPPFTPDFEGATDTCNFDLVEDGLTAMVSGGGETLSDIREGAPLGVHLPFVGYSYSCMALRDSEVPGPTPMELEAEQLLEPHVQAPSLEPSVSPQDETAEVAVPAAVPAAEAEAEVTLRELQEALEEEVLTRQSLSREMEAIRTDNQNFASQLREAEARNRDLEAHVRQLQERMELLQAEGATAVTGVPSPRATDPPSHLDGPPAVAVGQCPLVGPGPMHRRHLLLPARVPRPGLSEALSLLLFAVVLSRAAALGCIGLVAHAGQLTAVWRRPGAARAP
Sequence of ALK5/TGFBR1 (P36897 whole entry): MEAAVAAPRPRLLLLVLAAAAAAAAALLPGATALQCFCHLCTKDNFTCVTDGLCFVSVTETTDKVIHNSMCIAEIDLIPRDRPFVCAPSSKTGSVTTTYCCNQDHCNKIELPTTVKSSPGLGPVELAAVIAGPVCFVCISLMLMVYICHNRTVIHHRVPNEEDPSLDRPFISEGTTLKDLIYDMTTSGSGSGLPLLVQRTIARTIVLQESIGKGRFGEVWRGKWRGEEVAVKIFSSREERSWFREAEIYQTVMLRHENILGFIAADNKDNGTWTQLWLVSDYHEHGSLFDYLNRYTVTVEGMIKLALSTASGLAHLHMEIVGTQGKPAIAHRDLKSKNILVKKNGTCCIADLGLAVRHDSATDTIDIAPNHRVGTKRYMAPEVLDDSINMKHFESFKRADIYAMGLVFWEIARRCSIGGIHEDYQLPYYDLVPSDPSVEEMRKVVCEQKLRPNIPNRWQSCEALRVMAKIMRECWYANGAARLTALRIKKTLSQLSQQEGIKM
Sequence of FER (P16591 whole entry): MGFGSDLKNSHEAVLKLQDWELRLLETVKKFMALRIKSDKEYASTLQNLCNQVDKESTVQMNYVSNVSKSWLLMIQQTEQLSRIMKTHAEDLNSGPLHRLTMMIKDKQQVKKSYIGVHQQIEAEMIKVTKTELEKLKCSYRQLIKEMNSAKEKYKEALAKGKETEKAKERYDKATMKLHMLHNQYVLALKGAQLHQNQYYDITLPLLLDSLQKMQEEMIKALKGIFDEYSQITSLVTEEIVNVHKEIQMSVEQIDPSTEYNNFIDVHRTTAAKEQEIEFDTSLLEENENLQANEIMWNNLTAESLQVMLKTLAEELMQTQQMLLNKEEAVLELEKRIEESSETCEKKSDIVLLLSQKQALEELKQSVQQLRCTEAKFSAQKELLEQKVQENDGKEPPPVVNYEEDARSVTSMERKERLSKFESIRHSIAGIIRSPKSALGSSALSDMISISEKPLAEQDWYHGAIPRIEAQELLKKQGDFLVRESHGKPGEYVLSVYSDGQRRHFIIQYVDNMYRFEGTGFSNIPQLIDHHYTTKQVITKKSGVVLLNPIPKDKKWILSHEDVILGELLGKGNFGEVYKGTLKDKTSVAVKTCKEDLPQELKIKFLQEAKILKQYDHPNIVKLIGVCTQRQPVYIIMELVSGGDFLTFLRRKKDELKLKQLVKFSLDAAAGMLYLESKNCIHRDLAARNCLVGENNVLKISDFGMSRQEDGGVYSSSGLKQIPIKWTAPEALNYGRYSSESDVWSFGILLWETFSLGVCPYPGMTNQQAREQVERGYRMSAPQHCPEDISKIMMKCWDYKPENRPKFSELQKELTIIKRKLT
T4 sequence (Q8IY84 whole entry): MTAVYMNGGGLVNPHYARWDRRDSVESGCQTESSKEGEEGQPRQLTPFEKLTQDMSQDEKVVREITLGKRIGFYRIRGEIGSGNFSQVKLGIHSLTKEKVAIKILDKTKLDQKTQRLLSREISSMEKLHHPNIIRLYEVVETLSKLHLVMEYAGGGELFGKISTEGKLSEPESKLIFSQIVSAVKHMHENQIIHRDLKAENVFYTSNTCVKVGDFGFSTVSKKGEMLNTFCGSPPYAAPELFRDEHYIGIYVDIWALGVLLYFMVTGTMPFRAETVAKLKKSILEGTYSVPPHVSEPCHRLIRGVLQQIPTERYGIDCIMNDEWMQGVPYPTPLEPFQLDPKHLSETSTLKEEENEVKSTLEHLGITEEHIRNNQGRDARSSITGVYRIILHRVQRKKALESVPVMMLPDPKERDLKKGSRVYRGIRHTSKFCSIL
Sequence of BRSK2 (Q8IWQ3 whole entry): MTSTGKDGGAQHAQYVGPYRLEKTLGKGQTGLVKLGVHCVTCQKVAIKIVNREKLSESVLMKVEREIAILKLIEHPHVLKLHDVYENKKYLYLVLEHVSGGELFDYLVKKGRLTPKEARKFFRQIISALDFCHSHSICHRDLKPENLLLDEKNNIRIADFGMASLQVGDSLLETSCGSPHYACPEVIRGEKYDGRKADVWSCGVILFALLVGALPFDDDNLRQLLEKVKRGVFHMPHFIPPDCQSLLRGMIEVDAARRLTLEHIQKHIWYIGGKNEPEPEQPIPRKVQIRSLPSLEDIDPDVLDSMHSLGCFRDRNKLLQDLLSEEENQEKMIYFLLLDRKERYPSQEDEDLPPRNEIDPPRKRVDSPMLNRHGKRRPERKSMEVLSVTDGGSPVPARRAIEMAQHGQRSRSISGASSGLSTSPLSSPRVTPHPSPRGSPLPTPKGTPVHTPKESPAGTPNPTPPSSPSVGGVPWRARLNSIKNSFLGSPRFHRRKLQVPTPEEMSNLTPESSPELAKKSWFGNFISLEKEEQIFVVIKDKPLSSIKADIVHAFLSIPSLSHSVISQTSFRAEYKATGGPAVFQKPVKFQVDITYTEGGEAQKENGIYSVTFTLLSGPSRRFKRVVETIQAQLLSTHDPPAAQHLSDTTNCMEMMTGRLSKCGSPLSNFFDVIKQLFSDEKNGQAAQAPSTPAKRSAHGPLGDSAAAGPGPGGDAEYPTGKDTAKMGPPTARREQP
T6 sequence (O43318 whole entry): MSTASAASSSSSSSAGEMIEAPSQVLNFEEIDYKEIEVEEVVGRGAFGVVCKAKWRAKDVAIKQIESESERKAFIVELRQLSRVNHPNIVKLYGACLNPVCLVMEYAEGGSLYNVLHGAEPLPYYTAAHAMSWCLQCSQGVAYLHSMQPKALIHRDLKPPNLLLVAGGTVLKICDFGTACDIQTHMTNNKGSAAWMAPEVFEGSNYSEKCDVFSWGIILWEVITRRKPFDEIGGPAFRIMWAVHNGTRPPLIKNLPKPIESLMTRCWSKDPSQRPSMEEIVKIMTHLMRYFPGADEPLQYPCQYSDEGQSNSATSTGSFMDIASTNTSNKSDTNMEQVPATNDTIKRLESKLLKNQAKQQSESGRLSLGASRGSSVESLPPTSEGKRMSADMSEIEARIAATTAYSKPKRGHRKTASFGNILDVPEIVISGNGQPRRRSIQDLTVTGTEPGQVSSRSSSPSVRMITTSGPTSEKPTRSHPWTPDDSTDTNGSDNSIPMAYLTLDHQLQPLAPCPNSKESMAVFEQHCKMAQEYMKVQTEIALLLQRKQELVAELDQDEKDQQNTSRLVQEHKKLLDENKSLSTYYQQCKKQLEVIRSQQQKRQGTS
Sequence of EPHA3 (P29320 whole entry): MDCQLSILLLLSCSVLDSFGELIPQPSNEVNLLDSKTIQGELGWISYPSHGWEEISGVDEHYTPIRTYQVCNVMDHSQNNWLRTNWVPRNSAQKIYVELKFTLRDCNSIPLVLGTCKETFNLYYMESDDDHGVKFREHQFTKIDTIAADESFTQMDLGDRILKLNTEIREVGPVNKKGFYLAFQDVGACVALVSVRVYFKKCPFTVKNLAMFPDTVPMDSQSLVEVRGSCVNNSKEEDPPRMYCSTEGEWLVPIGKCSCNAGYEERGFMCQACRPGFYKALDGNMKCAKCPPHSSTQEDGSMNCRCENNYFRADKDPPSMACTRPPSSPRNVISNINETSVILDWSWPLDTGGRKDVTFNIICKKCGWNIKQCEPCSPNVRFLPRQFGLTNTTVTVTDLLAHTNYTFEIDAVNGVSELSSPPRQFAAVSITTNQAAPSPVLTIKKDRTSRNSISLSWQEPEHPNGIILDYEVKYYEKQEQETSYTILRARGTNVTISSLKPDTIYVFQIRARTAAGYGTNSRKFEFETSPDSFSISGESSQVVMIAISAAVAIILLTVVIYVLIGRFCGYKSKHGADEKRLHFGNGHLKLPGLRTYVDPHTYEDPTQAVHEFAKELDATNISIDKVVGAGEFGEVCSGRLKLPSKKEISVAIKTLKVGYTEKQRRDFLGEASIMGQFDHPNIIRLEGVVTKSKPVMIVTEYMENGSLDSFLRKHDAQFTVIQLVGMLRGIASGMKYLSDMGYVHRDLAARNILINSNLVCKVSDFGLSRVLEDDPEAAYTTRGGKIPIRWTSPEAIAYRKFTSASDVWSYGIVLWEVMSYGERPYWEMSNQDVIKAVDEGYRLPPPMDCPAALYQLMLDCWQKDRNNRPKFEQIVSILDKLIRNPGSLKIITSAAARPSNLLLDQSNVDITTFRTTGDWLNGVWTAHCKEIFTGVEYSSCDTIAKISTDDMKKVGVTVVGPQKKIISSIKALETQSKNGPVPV

remaining activity at 0.3 µM (ALK5/TGFBR1; [1]): 88.1% | remaining activity at 0.3 µM (ALK5/TGFBR1; [2]): 88% | remaining activity at 0.3 µM (BRSK2; [1]): 119% | remaining activity at 0.3 µM (BRSK2; [2]): 116% | remaining activity at 0.3 µM (CAMK4; [1]): 96.9% | remaining activity at 0.3 µM (CAMK4; [2]): 94.7% | remaining activity at 0.3 µM (CDK1/cyclin B): 103% | remaining activity at 0.3 µM (CK2a; [1]): 42.4% | remaining activity at 0.3 µM (CK2a; [2]): 41.8% | remaining activity at 0.3 µM (CK2a2; [1]): 107% | remaining activity at 0.3 µM (CK2a2; [2]): 89.1% | remaining activity at 0.3 µM (COT1/MAP3K8; [1]): 100% | remaining activity at 0.3 µM (COT1/MAP3K8; [2]): 97.5% | remaining activity at 0.3 µM (DMPK; [1]): 102% | remaining activity at 0.3 µM (DMPK; [2]): 101% | remaining activity at 0.3 µM (EPHA3; [1]): 103% | remaining activity at 0.3 µM (EPHA3; [2]): 97.5% | remaining activity at 0.3 µM (FER; [1]): 11.7% | remaining activity at 0.3 µM (FER; [2]): 11.4% | remaining activity at 0.3 µM (FES/FPS; [1]): 18.2% | remaining activity at 0.3 µM (FES/FPS; [2]): 17.6% | remaining activity at 0.3 µM (MEK1; [1]): 95.7% | remaining activity at 0.3 µM (MEK1; [2]): 95.5% | remaining activity at 0.3 µM (MYO3b; [1]): 57.7% | remaining activity at 0.3 µM (MYO3b; [2]): 56.8% | remaining activity at 0.3 µM (NIM1; [1]): 102% | remaining activity at 0.3 µM (NIM1; [2]): 95.6% | remaining activity at 0.3 µM (OSR1/OXSR1; [1]): 110% | remaining activity at 0.3 µM (OSR1/OXSR1; [2]): 104% | remaining activity at 0.3 µM (PKA; [1]): 110% | remaining activity at 0.3 µM (PKA; [2]): 108% | remaining activity at 0.3 µM (RET; [1]): 83.2% | remaining activity at 0.3 µM (RET; [2]): 81.2% | remaining activity at 0.3 µM (STK32C/YANK3; [1]): 90.2% | remaining activity at 0.3 µM (STK32C/YANK3; [2]): 83.2% | remaining activity at 0.3 µM (STK38L/NDR2; [1]): 53.1% | remaining activity at 0.3 µM (STK38L/NDR2; [2]): 52.8% | remaining activity at 0.3 µM (TAK1; [1]): 103% | remaining activity at 0.3 µM (TAK1; [2]): 102%
SMILES: COc1cc(N2CCN(C)CC2)c(C)cc1Nc1ncc(Br)c(Nc2cccnc2N(C)C)n1 [TP-5801]
